How the values were obtained:
ScN2a [1] = assay: Inhibition of PrP-res formation in mouse ScN2a cells relative to control; assay type: functional, cell-based
[2] = Inhibition of PrP-res formation in prion Fukuoka1 strain infected mouse N2a#58 cells relative to control; assay type: functional
ScN2a [3] = assay: Cytotoxicity against mouse ScN2a cells up to 1 uM; assay type: cell-based
[4] = Cytotoxicity against prion Fukuoka1 strain infected mouse N2a#58 cells up to 1uM; assay type: cell-based
ScN2a [5] = assay: Cytotoxicity against mouse ScN2a cells at 100 uM; assay type: cell-based
[6] = Cytotoxicity against prion Fukuoka1 strain infected mouse N2a#58 cells at 100 uM; assay type: cell-based

C[n+]1ccc(-c2c3nc(c(-c4cc[n+](C)cc4)c4ccc([nH]4)c(-c4cc[n+](C)cc4)c4nc(c(-c5cc[n+](C)cc5)c5ccc2[nH]5)C=C4)C=C3)cc1
IC50 (ScN2a [1]): 130 nM | IC50 [2]: 160 nM

c1ccc2cc(-c3ccc4ccccc4n3)ncc2c1
IC50 (ScN2a [1]): 5 nM | Activity (ScN2a [3]): Not Active | IC50 [2]: 250 nM | Activity [4]: Not Active

C1=Cc2nc1c(-c1ccccc1)c1nc(c(-c3ccccc3)c3ccc([nH]3)c(-c3ccccc3)c3ccc([nH]3)c2-c2ccccc2)C=C1 [TETRAPHENYLPORPHYRIN]
IC50 (ScN2a [1]): 10 nM | IC50 [2]: 320 nM

O=S(=O)(O)c1ccc(-c2c3nc(c(-c4ccc(S(=O)(=O)O)cc4)c4ccc([nH]4)c(-c4ccc(S(=O)(=O)O)cc4)c4ccc([nH]4)c(-c4ccc(S(=O)(=O)O)cc4)c4nc2C=C4)C=C3)cc1 [TETRAPHENYLPORPHINE TETRASULFONIC ACID]
IC50 (ScN2a [1]): 200 nM | IC50 [2]: 160 nM

O=C(O)c1ccc(-c2c3nc(c(-c4ccc(C(=O)O)cc4)c4ccc([nH]4)c(-c4ccc(C(=O)O)cc4)c4ccc([nH]4)c(-c4ccc(C(=O)O)cc4)c4nc2C=C4)C=C3)cc1
IC50 (ScN2a [1]): 250 nM | IC50 [2]: 160 nM

O=C([O-])c1cc(-c2cc(C(=O)[O-])c3ccccc3n2)nc2ccccc12.[Na+].[Na+]
Activity (ScN2a [3]): Not Active | Activity [4]: Not Active

Oc1cccc2cccnc12 [OXYQUINOLINE]
Activity (ScN2a [5]): Active | Activity [6]: Active

Cc1ccc2ccc3ccc(C)nc3c2n1 [NEOCUPROINE]
IC50 (ScN2a [1]): 80 nM | Activity (ScN2a [3]): Not Active | Activity [4]: Not Active

Cc1cc(-c2ccccc2)c2ccc3c(-c4ccccc4)cc(C)nc3c2n1 [BATHOCUPROINE]
IC50 (ScN2a [1]): 80 nM | Activity (ScN2a [3]): Not Active | IC50 [2]: 200 nM | Activity [4]: Not Active

c1ccc(-c2cccc(-c3ccccn3)n2)nc1 [TERPYRIDINE]
Activity (ScN2a [5]): Active | Activity [6]: Active

c1cnc2c(c1)ccc1cccnc12 [PHENANTHROLINE]
Activity (ScN2a [5]): Active | Activity [6]: Active

Source: ChEMBL document CHEMBL1145291, “Metal complexes with superoxide dismutase-like activity as candidates for anti-prion drug” (Bioorg Med Chem Lett, 2006)
